Here are results for two compounds from patent US20100113613A1, “CYCLOHEXANE POLYALCOHOL FORMULATION FOR TREATMENT OF DISORDERS OF PROTEIN AGGREGATION” (WARATAH PHARMACEUTICALS, priority 2006, published 2010).

Data set [1] deals with TgCRND8 mice. The data set can be described thus: TgCRND8 mice therapeutic dosing (5-6 months): synaptic density. The data set is classed as in vivo. As to conditions: therapeutic dosing regimen 5-6 months, p<0.001.
Data set [2] is described as follows: Orally administered tritiated-inositol uptake in plasma and brain (FIG. 16). The format is in vivo. How it is done: FIG. 16. Bioavailability of scyllo- (solid line) and myo-inositol (dashed line) in plasma and brain, determined using orally administered tritiated-inositol uptake studies. […] Brain levels also rose rapidly and were maximal at 8 h and 32 h, respectively.

Data set [3] has as its system TgCRND8 mice. The data set can be described thus: TgCRND8 mice therapeutic dosing (5-6 months): Morris Water Maze. The format is in vivo.
For data set [4], the system named is rats infused intracerebroventricularly. The data set is described as follows: Cognitive dysfunction in rats infused intracerebroventricularly with Aβ oligomers. The format is in vivo, rat. As to conditions: rats infused icv with oligomers. The method, then:
More complex systems provide support for 5 μM (0.9 μg/mL) as an effective local concentration of the scyllo-cyclohexanehexyl. […] The effectiveness of this concentration was confirmed in acute cognitive dysfunction study in rats. In the clinic, effective local concentrations of a scyllo-cyclohexanehexyl will need to be achieved following oral dosing. Three studies have examined the effective dose range of a scyllo-cyclohexanehexyl following oral dosing. […] In rats infused intracerebroventricularly (icy) with All oligomers, approximately 30 mg/kg/day (the lowest dose administered orally) provided effective alleviation of cognitive dysfunction. Therefore, considering 2 species, different animal ages and different endpoints, a dose level ranging between 3-30 mg/kg/day has consistently shown efficacy.

Data set [5] has as its system naturally-expressed oligomers of Aβ. The data set can be described thus: In vitro effect on naturally-expressed Aβ oligomers. As to conditions: naturally-expressed oligomers at 1-2 nM; 5 μM = 0.9 μg/mL.
The nature of data set [6]: Brain and CSF levels of inositols after one month ad libitum dosing (GC/MS), Example 2. The format is in vivo, TgCRND8 mice. The note with it: mouse, in vivo. The method, then: Study drugs were administered either at 30 mg/kg by oral gavage, or ad libitum by dissolution in drinking water. For administration in drinking water, study drugs were dissolved at 10 mg/ml. The average amount of water taken from the bottle was 3 ml daily per animal. The average mouse weight was 33 g. […] Quantification of scyllo-cyclohexanehexyl and myo-inositol. Scyllo-cyclohexanehexyl and myo-cyclohexanehexyl levels in the brain and CSF were analyzed using gas chromatography/mass spectrometry. D-chiro-inositol was used as an internal control, as it is not present in these biological samples. Derivatization: To increase the volatility and thermal stability of these compounds and to allow for proper peak separation, these samples need to first be derivatized. The derivatization was adapted from a method presented previously (Shetty, H U, et al, 1995, Anal. Biochem. 224:279-85), where the hydroxyl groups of the cyclohexanehexyl were replaced with acetyl groups. […] Similarly, a 5-15 μl sample of CSF was mixed with 1 ml of methanol and allowed to stand at room temperature for 5 minutes. The resulting suspension was centrifuged (5 min, 5000×g) and the supernatant transferred to a glass tube (Teflon-lined cap). […] These samples were then evaporated to complete dryness (Speedvac; 60° C.). […] This mixture was flushed with dry nitrogen, securely capped and the tubes heated (80° C.; 30 min). Following derivatization, samples were cooled (RT) and the unreacted acetylating reagent evaporated using a steady stream of nitrogen gas. The derivatized products were re-dissolved (4 ml; hexane-ethyl acetate (80:20, v/v)) and washed with 1 ml of 5% sodium hydrogencarbonate solution. […] The residue was reconstituted in 100 μl; ethyl acetate. 1 μL of this was injected into the GC/MS system. A similar procedure was followed using stock concentrations of scyllo- and myo-cyclohexanehexols, which were then used to generate concentration curves (in this case the internal standard was derivatized separately and then added). GC/MS was performed using a Perkin Elmer TurboMass Autosystem XL, with a quadrupole mass spectrometer and electron ionization. Gas chromatography was performed using a 30 m×0.25 mm×0.25 μm ZB 5 (5% diphenyl/95% dimethylpolysiloxane) column, using the carrier gas Helium (1 ml/min). Samples were injected with the split set to 50 at 1 min and 0 at 5 min, the injector temperature was set at 300° C. and an initial oven temperature of 80° C. After a hold of 1 min, the temperature was ramped at 45° C./min to 187° C. and held there for 15 min. […] Sample peaks were analyzed using selected-ion monitoring, using m/z 168 for determining cyclohexanehexyl levels in the brain and CSF and m/z 373 for determining cyclohexanehexyl levels in plasma, as monitoring the larger ion reduced noise. […]

For data set [7], the system named is TgCRND8 mice. The data set can be described thus: TgCRND8 effective dose range (0.3-3.3 mg/kg/day, 3 to 4 months): Morris Water Maze. The data set is classed as in vivo. The note with it: for effect on cognitive dysfunction and plaque burden: oral gavage twice daily. The method, then: The highest possible dose level of scyllo-cyclohexanehexyl compound was administered in a CRND8 mouse model. […]8 mice were dosed for 28 days from 3 to 4 months of age, i.e. a time when the disease phenotype would be newly established. This study design was selected to enhance the efficiency of the study (dose earlier) and maximise the information obtained (dose at a time when changes are of sufficient magnitude to detect a treatment effect). […] Cognitive function and plaque burden were assessed. • Improvement of cognitive function: Animals were assessed using the Morris Water Maze at 4 months (FIG. 11). […] This path length was similar to that observed in previous experiments in mice dosed with the compound in drinking water ad libitum. […] Thus a clear dose response was observed.

naturally-expressed oligomers of Aβ, sequence (P05067 672-711 limits assumed): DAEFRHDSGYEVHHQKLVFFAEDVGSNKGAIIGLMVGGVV

With `OC1C(O)C(O)C(O)C(O)C1O` (stereo not drawn) [AZD-103, scyllo-inositol], in the data set with TgCRND8 mice [1], the synaptic density result is on record as “increased synaptic density”. Further, in data set [2], the “time of maximal brain levels” value is 32 h and the “time of peak plasma levels post administration” value amounted to 12 h. Further, the “swim path lengths vs non-transgenic littermates” value with TgCRND8 mice [3] (TgCRND8 mice treated 28 days from 5 months, p=0.11) is on record as “indistinguishable from non-transgenic littermates”. The “behavioural performance (swim path length in the Morris Water Maze) vs untreated controls” value in the data set with TgCRND8 mice [3] (TgCRND8 mice, 28 days from 5 months, drinking water 10 mg/ml (approx. 900 mg/kg over 24 hours), p=0.01) is listed as “significantly better behavioural performance”.

As to scyllo-inositol [AZD-103], the “dose providing effective alleviation of cognitive dysfunction (lowest dose administered orally)” value in data set [4] is “approximately 30 mg/kg/day”. Further, in data set [5], the “concentration showing greater consistency of effect” value came out at 5 µM. Besides, the “increase of scyllo-cyclohexanehexyl level in CSF vs untreated” value in data set [6] is listed as 10 fold. The “increase of scyllo-cyclohexanehexyl level in brain vs untreated” value in data set [6] is recorded as 7 fold. The “swim path length vs untreated controls” value in the data set on TgCRND8 mice [7] (TgCRND8 mice, 0.3 mg/kg/day, 28 days from 3 to 4 months) is on record as “indistinguishable from untreated controls”. The “effect on cognitive dysfunction and plaque burden” value with TgCRND8 mice [7] (TgCRND8 mice, 0.3 mg/kg/day, compared to untreated animals) is “no observed effect”; with TgCRND8 mice [7] (TgCRND8 mice, 1.0 mg/kg/day), “partial effectiveness”; with TgCRND8 mice [7] (TgCRND8 mice, 3.3 mg/kg/day), “significant alleviation of cognitive dysfunction and reduction in plaque burden”. The “swim path length on day 5 of training vs untreated animals” value in the data set with TgCRND8 mice [7] (TgCRND8 mice, 3.3 mg/kg/day, 28 days from 3 to 4 months, p=0.04) is recorded as “significantly shorter swim path length”. In addition, in the data set on TgCRND8 mice [7] (young CRND8 mice dosed 12-16 weeks of age, oral), the “dose providing efficacy in terms of behaviour and Aβ accumulation” value was determined as 3.3 mg/kg/day.
